Data from US20060069132A1, “Azolecarboxamide herbicides” (priority 2004, published 2006).

Columns and labels:
Surinam grass = experiment: Test B pre-/postemergence herbicide test; format: in vivo, Urochloa decumbens; conditions: for Surinam Grass plant response rating: Preemergence, scale 0 to 100
How it was run: (§1)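 Evaluation is visual, comparing treated with control plants on a scale where 0 means no effect and 100 means full control. Treatments were preemergence, or postemergence on seedlings 2–18 cm tall, and held 13–15 days in the greenhouse.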

pigweed = experiment: Test B pre-/postemergence herbicide test; format: in vivo, Amaranthus retroflexus; conditions: for Pigweed plant response rating: Preemergence, scale 0 to 100
How it was run: as §1

velvetleaf = experiment: Test B pre-/postemergence herbicide test; format: in vivo, Abutilon theophrasti; conditions: for Velvetleaf plant response rating: Preemergence, scale 0 to 100
How it was run: as §1

ducksalad = experiment: Test B flooded paddy test; format: in vivo, Heteranthera limosa; conditions: 1000 g ai/ha, visual rating, scale 0 to 100 (0 no effect, 100 complete control), 13 to 15 days
How it was run: (§2)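 Treated at 2-leaf (paddy) or 1–4-leaf, 2–18 cm (postemergence); greenhouse 13–15 d; visual score vs control, 0 none to 100 complete control; dash = not tested.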

large crabgrass = experiment: Test B pre-/postemergence herbicide test; format: in vivo, Digitaria sanguinalis; conditions: for Plant response rating, Crabgrass, Large: visual rating after 13 to 15 days
How it was run: as §1

blackgrass = experiment: Test B postemergence herbicide test; format: in vivo, Alopecurus myosuroides; conditions: Postemergence, scale 0 (no effect) to 100 (complete control); for Blackgrass plant response rating: 125 g ai/ha; for Plant response rating, Blackgrass: 500 g ai/ha, visual rating after 13 to 15 days
How it was run: as §2

corn = experiment: Test B pre-/postemergence herbicide test; format: in vivo, Zea mays
How it was run: as §1

[1] = system: small flower umbrella sedge; experiment: Test B flooded paddy test; format: in vivo, Cyperus difformis; conditions: 1000 g ai/ha, visual rating, scale 0 to 100 (0 no effect, 100 complete control), 13 to 15 days
How it was run: as §2

wheat = experiment: Test B postemergence herbicide test; format: in vivo, Triticum aestivum; conditions: Postemergence, 500 g ai/ha; visual rating after 13 to 15 days, scale 0 (no effect) to 100 (complete control)
How it was run: (§3)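 Visual ratings, 0 (no effect) to 100 (complete control), made versus controls after 13–15 d greenhouse. Paddy plants treated at 2-leaf stage; postemergence plants at 1- to 4-leaf stage, 2–18 cm tall.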

barnyardgrass = experiment: Test B flooded paddy test; format: in vivo, Echinochloa crus-galli; conditions: 1000 g ai/ha, visual rating, scale 0 to 100 (0 no effect, 100 complete control), 13 to 15 days
How it was run: as §2

giant foxtail = experiment: Test B pre-/postemergence herbicide test; format: in vivo, Setaria faberi
How it was run: as §1

morningglory = experiment: Test B pre-/postemergence herbicide test; format: in vivo, Ipomoea coccinea
How it was run: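 Herbicidal effect was judged by eye on a 0–100 scale after plants stood 13 to 15 days in the greenhouse following pre- or postemergence treatment with surfactant-containing formulations.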

rice = experiment: Test B flooded paddy test; format: in vivo, Oryza sativa; conditions: 1000 g ai/ha, visual rating, scale 0 to 100 (0 no effect, 100 complete control), 13 to 15 days
How it was run: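 Each value is a visual 0–100 response rating taken against controls 13 to 15 days after treatment in the greenhouse. Plants received formulated chemical postemergence at the 1- to 4-leaf stage or, in flooded paddy, at the 2-leaf stage.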

lambsquarters = experiment: Test B pre-/postemergence herbicide test; format: in vivo, Chenopodium album
How it was run: as §1

wild oat = experiment: Test B postemergence herbicide test; format: in vivo, Avena fatua; conditions: Postemergence, scale 0 (no effect) to 100 (complete control); for Oat, Wild plant response rating: 125 g ai/ha; for Plant response rating, Oat, Wild: 500 g ai/ha, visual rating after 13 to 15 days
How it was run: as §3

[2] = Postemergence, 500 g ai/ha, visual rating after 13 to 15 days, scale 0 (no effect) to 100 (complete control)
[3] = preemergence, 125 g ai/ha, 0 to 100 scale, 0 is no effect, 100 is complete control
[4] = Postemergence, 125 g ai/ha, scale 0 (no effect) to 100 (complete control)
[5] = Postemergence, 500 g ai/ha, scale 0 (no effect) to 100 (complete control)
[6] = Preemergence, 500 g ai/ha, scale 0 to 100

Row | SMILES | Plant response rating, Surinam Grass (Surinam grass; [2]) | Surinam Grass plant response rating (Surinam grass; 500 g ai/ha) | Plant response rating, Surinam Grass (Surinam grass; [3]) | Plant response rating, Pigweed (pigweed; [2]) | Pigweed plant response rating (pigweed; 500 g ai/ha) | Plant response rating, Pigweed (pigweed; [3]) | Plant response rating, Velvetleaf (velvetleaf; [2]) | Velvetleaf plant response rating (velvetleaf; 500 g ai/ha) | Plant response rating, Velvetleaf (velvetleaf; [3]) | Ducksalad plant response rating (ducksalad) | Crabgrass, Large plant response rating (large crabgrass; [4]) | Plant response rating, Crabgrass, Large (large crabgrass; [5]) | Crabgrass, Large plant response rating (large crabgrass; [6]) | Blackgrass plant response rating (blackgrass) | Plant response rating, Blackgrass (blackgrass) | Corn plant response rating (corn; [6]) | Sedge, Umbrella plant response rating [1] | Plant response rating, Wheat (wheat) | Barnyardgrass plant response rating (barnyardgrass) | Foxtail, Giant plant response rating (giant foxtail; [4]) | other results
1 | CCNC(=O)c1cccc(NC(=O)c2cc(C(C)(C)C)nn2CCF)c1 [Compound 35] | 40 | 80 | 40 | 100 | 100 | 100 | 50 | 60 | 50 | 80 | 20 | 20 | 90 | 20 | 30 | 40 | 90 | 20 | 90 | 20 | Plant response rating, Foxtail, Giant (giant foxtail; [2]): 20; Foxtail, Giant plant response rating (giant foxtail; [6]): 100; Plant response rating, Foxtail, Giant (giant foxtail; [3]): 80; Morningglory plant response rating (morningglory; [6]): 10; Plant response rating, Morningglory (morningglory; [3]): 10; Rice plant response rating (rice): 60; Lambsquarters plant response rating (lambsquarters; [4]): 80; Plant response rating, Lambsquarters (lambsquarters; [2]): 90; Lambsquarters plant response rating (lambsquarters; [6]): 100; Plant response rating, Lambsquarters (lambsquarters; [3]): 90; Oat, Wild plant response rating (wild oat): 0; Plant response rating, Oat, Wild (wild oat): 10
2 | CCn1nc(C(C)(C)C)cc1C(=O)Nc1cccc(C(=O)NC2CC2)c1 [Compound 44] | 20 | 40 | 0 | 100 | 100 | 100 | 80 | 100 | 20 | 70 | 20 | 90 | 100 | 10 | 20 | 0 | 70 | 20 | 70 | 20 | Corn plant response rating (corn; [4]): 20; Plant response rating, Corn (corn; [2]): 30; Plant response rating, Foxtail, Giant (giant foxtail; [2]): 30; Foxtail, Giant plant response rating (giant foxtail; [6]): 70; Plant response rating, Foxtail, Giant (giant foxtail; [3]): 0; Morningglory plant response rating (morningglory; [4]): 30; Plant response rating, Morningglory (morningglory; [2]): 90; Morningglory plant response rating (morningglory; [6]): 10; Plant response rating, Morningglory (morningglory; [3]): 0; Rice plant response rating (rice): 70; Lambsquarters plant response rating (lambsquarters; [4]): 80; Plant response rating, Lambsquarters (lambsquarters; [2]): 90; Lambsquarters plant response rating (lambsquarters; [6]): 100; Plant response rating, Lambsquarters (lambsquarters; [3]): 80; Oat, Wild plant response rating (wild oat): 20; Plant response rating, Oat, Wild (wild oat): 20
